Data: patent publication US11041859B2, “Methods of identifying SENP1 inhibitors” (priority 2013, dated 2021)

System: HeLa cells
Experiment: Accumulation of SUMOylated proteins in HeLa cells (Western blot, 48 hours)
Format: cell-based

Nc1ccc2ccccc2c1/N=N/c1ccc(/C=C/c2ccc(/N=N/c3c(N)ccc4ccccc34)cc2S(=O)(=O)O)c(S(=O)(=O)O)c1 [SPI-01]
accumulation of SUMO-1 conjugates in cells: less significant effects | accumulation of SUMO-2/3 conjugates in cells (increasing concentrations): accumulation correlated with inhibitor concentration
